Data on 41 molecules can be found in patent publication US20240262804A1, “NITROGEN-CONTAINING HETEROCYCLIC KETONES, PREPARATION METHODS AND MEDICINAL USES THEREOF” (Hansoh Bio LLC, priority 2021, published 2024).

The IC50 is the point on the concentration scale where inhibition reaches its midpoint. The half-life is the time in which the quantity being followed falls by half. Low values mean rapid decline, high ones slow decline.

One series concerns the target bovine cardiac myosin (Bos taurus (Bovine), UniProt Q9BE39). Description: Myosin inhibitory potency: PK/LDH-coupled ATPase assay on bovine skinned cardiac myofibrils. Type of series: biochemical. The conditions noted are these: pCa=6.25, 50 μM ATP, 25° C., read-out: myosin inhibition activity IC50. Summed up:
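Bovine left-ventricle skinned myofibrils (1 mg/mL) in PM12 buffer pH 6.8 at pCa 6.25, 50 μM ATP, PK/LDH-coupled NADH depletion read at 340 nm, 25 °C.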

Series [1] has as its system isolated rat ventricular myocytes. Nature of the series: Cardiomyocyte contractility assay (sarcomere shortening, IonOptix). It is filed as cell-based. The conditions noted are these: for Ratio of % FS 5 uM/15 uM: 5 uM versus 15 uM; for % FS (% reduction from baseline) at 5 uM / % FS (% reduction from baseline) at 15uM: rat ventricular myocytes, paced at 1 Hz. The protocol:
The effects of compounds on sarcomere shortening in isolated rat ventricular myocytes were assessed using the IonOptix apparatus.
Myocytes were placed in a chamber mounted on the stage of an inverted microscope and continuously superfused with oxygenated Tyrode solution containing (in millimolar): 121 NaCl, 5 KCl, 2.8 NaCH3CO2, MgCl2·6H2O, Glucose, NaHCO3, Na2HPO4. 7H2O, and 1.5 mM CaCl2). Solution was preheated at 36±1° C. and electrical-field stimulated at 1 Hz by 2 platinum electrodes connected to a Myopacer field stimulator (IonOptix Corporation) with 4 ms square-wave bipolar pulses (10 V). Cells were illuminated by the microscope light. The cell image was collected by a x40 ultraviolet epifluorescence objective, diverted to the microscope side port, where the cell image was recorded by a charge coupled device (CCD) camera (MyoCam, IonOptix Corporation), converting optical brightness (pixels) into electrical signals (voltage). The MyoCam configuration allowed acquisition of up to 240 images per second (240 Hz frame rate). Contractile properties of the myocytes were analyzed in real time by a video detector and a personal computer-based data acquisition system (Ionwizard 6.0, IonOptix Corporation). Only myocytes with clear striations, quiescent prior to pacing with a resting sarcomere length greater or equal to 1.75 μm were used, since this is presumed to represent the lower limit for healthy cells.
Sarcomere shortening was monitored in control solution (predrug) until stable recordings were obtained (baseline period). To determine the response to compounds, myocytes were first superfused for 60 seconds with Tyrode's buffer followed by at least a 5 minute—(or until steady state was reached, up to 10 min) superfusion of compound. Each cell was subjected to 2 concentrations (5 and 15 uM or 5 and 10 uM) of test compounds. For some cells, a washout period was performed after the last concentration. Duration of the washout period was variable, resulting in variability in the washout data. In separate cells, a single concentration of isoproterenol (100 nM) was applied. Data were continuously recorded using the IonOptix software. Contractility data were analyzed using Ionwizard software (IonOptix). For each cell, 10-15 contractility transients at baseline and after treatment were averaged and compared.

Series [2] in a line: Pharmacokinetic profiles in male SD rats (IV and PO). It is filed as in vivo, rat. The conditions noted are these: IV 1 mg/kg, PO 5 mg/kg, route for this parameter not given; for clearance / half-life / Vd: rat, plasma; for Vd: read-out: VSS. How it is done: Pharmacokinetic profile of compounds were determined by IV (1 mg/Kg) and PO (5 mg/Kg) administrations in male SD rats. Compounds were administrated with free base and formulated in 5% DMAC+25% PEG-400+70%(30% 2-HP-β-CD in water). The compounds were dosed at 1 mg/kg for intravenous and 5 mg/kg oral administration. Blood samples were collected at 0, 0.083, 0.25, 0.5, 1, 2, 4, 8 and 24 hours post dose, serial bleeding for plasma for the IV group. Blood samples were collected at 0, 0.25, 0.5, 1, 2, 4, 6, 8 and 24 hours post dose, serial bleeding for the PO group. Approximately 150 μL whole blood/time point were collected in K2EDTA tube via jugular vein. Blood sample was put on ice and centrifuged at 2000 g for 5 min to obtain plasma sample within 15 minutes. PK parameters were estimated by non-compartmental model using WinNonlin 8.2.

Molecules are shown by their SMILES.

bovine cardiac myosin, sequence (Q9BE39 whole entry): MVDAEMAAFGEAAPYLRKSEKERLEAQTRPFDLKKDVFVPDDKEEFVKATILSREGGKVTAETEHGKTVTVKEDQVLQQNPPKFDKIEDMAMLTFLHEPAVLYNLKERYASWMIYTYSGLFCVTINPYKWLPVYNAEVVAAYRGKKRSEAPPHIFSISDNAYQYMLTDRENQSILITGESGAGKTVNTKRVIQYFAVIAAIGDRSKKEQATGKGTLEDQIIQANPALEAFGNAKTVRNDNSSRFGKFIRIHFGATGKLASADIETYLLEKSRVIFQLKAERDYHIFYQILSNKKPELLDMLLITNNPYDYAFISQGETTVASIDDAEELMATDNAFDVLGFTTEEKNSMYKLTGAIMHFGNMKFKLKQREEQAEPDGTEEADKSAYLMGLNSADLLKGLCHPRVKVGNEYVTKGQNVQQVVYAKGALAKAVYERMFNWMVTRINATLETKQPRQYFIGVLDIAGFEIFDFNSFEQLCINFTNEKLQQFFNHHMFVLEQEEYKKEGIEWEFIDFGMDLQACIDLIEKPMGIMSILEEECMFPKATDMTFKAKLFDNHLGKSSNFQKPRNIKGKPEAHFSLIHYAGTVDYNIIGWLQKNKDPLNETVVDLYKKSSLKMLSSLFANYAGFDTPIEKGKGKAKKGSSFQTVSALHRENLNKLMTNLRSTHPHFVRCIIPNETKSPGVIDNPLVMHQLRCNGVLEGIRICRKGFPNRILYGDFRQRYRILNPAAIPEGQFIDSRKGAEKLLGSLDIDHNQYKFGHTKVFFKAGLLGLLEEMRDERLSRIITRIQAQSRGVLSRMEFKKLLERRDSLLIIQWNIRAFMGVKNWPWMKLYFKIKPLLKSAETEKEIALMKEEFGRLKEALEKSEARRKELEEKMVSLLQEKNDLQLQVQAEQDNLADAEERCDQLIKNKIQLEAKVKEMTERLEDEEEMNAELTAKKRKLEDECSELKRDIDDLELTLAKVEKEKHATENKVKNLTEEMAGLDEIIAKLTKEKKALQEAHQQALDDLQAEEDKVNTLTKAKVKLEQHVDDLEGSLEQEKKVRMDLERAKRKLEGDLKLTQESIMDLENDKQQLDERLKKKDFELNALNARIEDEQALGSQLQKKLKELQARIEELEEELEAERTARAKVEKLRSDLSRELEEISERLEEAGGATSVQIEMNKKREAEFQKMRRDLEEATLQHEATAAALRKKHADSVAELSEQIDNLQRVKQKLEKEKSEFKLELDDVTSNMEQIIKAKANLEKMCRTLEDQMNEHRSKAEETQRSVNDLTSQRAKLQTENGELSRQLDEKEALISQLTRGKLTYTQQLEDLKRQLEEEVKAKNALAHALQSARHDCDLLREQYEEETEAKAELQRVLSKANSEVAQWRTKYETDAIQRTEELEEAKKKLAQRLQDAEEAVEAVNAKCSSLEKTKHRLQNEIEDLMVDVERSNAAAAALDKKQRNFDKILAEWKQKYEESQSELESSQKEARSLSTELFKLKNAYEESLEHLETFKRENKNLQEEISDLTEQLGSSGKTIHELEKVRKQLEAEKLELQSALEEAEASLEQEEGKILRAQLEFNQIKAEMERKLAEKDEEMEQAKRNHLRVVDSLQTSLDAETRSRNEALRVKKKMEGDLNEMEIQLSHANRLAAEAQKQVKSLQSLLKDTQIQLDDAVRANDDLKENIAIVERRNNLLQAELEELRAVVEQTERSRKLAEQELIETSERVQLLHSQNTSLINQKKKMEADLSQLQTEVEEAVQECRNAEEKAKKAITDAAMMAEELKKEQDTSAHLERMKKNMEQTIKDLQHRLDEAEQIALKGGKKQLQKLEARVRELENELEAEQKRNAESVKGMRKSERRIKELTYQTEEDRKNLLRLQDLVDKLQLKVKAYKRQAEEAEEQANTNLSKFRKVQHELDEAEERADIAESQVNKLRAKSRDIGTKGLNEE
bovine cardiac myosin, sequence (P85100 whole entry partner): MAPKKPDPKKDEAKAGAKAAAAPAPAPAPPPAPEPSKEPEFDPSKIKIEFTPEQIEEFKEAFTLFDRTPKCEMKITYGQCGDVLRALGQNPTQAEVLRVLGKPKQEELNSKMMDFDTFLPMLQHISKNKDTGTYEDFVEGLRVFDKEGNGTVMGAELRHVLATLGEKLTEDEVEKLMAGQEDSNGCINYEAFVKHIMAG
bovine cardiac myosin, sequence (Q3SZE5 whole entry partner): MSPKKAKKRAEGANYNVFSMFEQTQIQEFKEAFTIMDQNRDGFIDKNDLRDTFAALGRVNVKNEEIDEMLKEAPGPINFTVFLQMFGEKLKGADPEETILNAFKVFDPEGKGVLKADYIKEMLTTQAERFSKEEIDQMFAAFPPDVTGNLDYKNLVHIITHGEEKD

Turning to `Cc1ccc([C@H](C)Nc2nc(=O)n(C3CCOCC3)c(=O)[nH]2)c(C)c1` [Example 168], on bovine cardiac myosin, the IC50 worked out at 1700 nM. Besides, in series [1], the “Ratio of % FS 5 uM/15 uM” value came out at 2.2, the “% FS (% reduction from baseline) at 5 uM” value is on record as 54.3 +/− 9.3% and the “% FS (% reduction from baseline) at 15uM” value is recorded as 24.3 +/− 8.5%. Moreover, in series [2], the DNAUC turned out to be 13412.2 ng·h/mL, the clearance was 1.33 mL/min/kg, the half-life was 233 min and the Vd was found to be 0.32 L/kg.

Consider `Cc1cc([C@H](C)Nc2nc(=O)n(C3CCOCC3)c(=O)[nH]2)ccc1F` [Example 156], for which the IC50 at bovine cardiac myosin stood at 1130 nM. Also, in series [1], the “Ratio of % FS 5 uM/15 uM” value was 2.4, the “% FS (% reduction from baseline) at 5 uM” value is 61.5 +/− 5.2% and the “% FS (% reduction from baseline) at 15uM” value was 26.1 +/− 4%. In addition, in series [2], the DNAUC turned out to be 5052.2 ng·h/mL, the clearance is 3.17 mL/min/kg, the half-life was 328 min and the Vd came to 0.97 L/kg. As to `C[C@H](Nc1nc(=O)n(C2CCOCC2)c(=O)[nH]1)c1ccc(Cl)c(Cl)c1` [Example 165], the IC50 on bovine cardiac myosin came to 200 nM. Further, in series [2], the DNAUC amounted to 11463.4 ng·h/mL, the clearance is 1.67 mL/min/kg, the half-life was 275 min and the Vd came out at 0.46 L/kg.

As to `C[C@H](Nc1nc(=O)n(C2CCOCC2)c(=O)[nH]1)c1ccc(F)cc1Cl` [Example 162], in series [1], the “Ratio of % FS 5 uM/15 uM” value is given as 1.9, the “% FS (% reduction from baseline) at 5 uM” value is listed as 60.8 +/− 12.7% and the “% FS (% reduction from baseline) at 15uM” value was 32.2 +/− 5.3%. In series [2], the DNAUC was determined as 4195.1 ng·h/mL, the clearance was 4.17 mL/min/kg, the half-life is 224 min and the Vd is 0.97 L/kg. With `CC(C)C(=O)N1CCC(n2c(=O)nc(N[C@@H](C)C3CCCCC3)[nH]c2=O)CC1` [Example 234], the IC50 on bovine cardiac myosin came to 7080 nM. As to `Cc1cc([C@@H](C)Nc2nc(=O)n(C3CCOCC3)c(=O)[nH]2)c(F)cc1F` [Example 272], the concentration for half-maximal inhibition (IC50) at bovine cardiac myosin amounted to 370 nM. On the same count and under the same terms, then `C[C@H](Nc1nc(=O)n(C2CCC(F)(F)CC2)c(=O)[nH]1)C1CCCCC1` [Example 55], with 4630 nM; and `C[C@H](Nc1nc(=O)n(C2CCOCC2)c(=O)[nH]1)c1cccc(-c2cccnc2)c1` [Example 222], with 2050 nM.

Take `Cc1ccc([C@H](C)Nc2nc(=O)n(C3CCOCC3)c(=O)[nH]2)cc1F` [Example 161]: at bovine cardiac myosin, the IC50 is 1050 nM. As to `CC(Nc1nc(=O)n(C2CCOCC2)c(=O)[nH]1)c1ccc(C(F)(F)F)cc1` (stereo not shown) [Example 131], on bovine cardiac myosin, the IC50 came to 2490 nM. Regarding `C[C@H](Nc1nc(=O)n(C2CCOCC2)c(=O)[nH]1)c1ccc(F)c(Br)c1` [Example 158], the IC50 on bovine cardiac myosin is 520 nM. Same read-out and setting: to `CC(=O)N1CC(c2cccc([C@H](C)Nc3nc(=O)n(C4CCOCC4)c(=O)[nH]3)c2)C1` [Example 273] belongs 580 nM. Regarding `CC(=O)N1CCC(c2cccc([C@H](C)Nc3nc(=O)n(C4CCOCC4)c(=O)[nH]3)c2)CC1` [Example 329], the IC50 at bovine cardiac myosin was 1240 nM. Same read-out and setting: to `CC(C)n1c(=O)nc(NC(C2CCCCC2)C2CC2)[nH]c1=O` (stereo not shown) [Example 69] belongs 8430 nM; to `CC(C)c1ccc([C@H](C)Nc2nc(=O)n(C3CCOCC3)c(=O)[nH]2)cc1` [Example 328], 850 nM. Regarding `C[C@H](Nc1nc(=O)n(C2CCOCC2)c(=O)[nH]1)c1cccc([C@H](O)C(F)(F)F)c1` [Example 291], the IC50 on bovine cardiac myosin worked out at 850 nM.

For `C[C@H](Nc1nc(=O)n(C2CCOCC2)c(=O)[nH]1)c1cccc(C2CN(CC(F)(F)F)C2)c1` [Example 288], at bovine cardiac myosin, the IC50 was found to be 360 nM. As for `C[C@H](Nc1nc(=O)n(C2CCOCC2)c(=O)[nH]1)c1cccc(N2CCN(C)CC2)c1` [Example 212], the IC50 on bovine cardiac myosin is 17700 nM. As to `C[C@H](Nc1nc(=O)n(C2CCOCC2)c(=O)[nH]1)c1cccc(N2CCOCC2)c1` [Example 206], on bovine cardiac myosin, the IC50 stood at 3800 nM.

Take `C[C@H](Nc1nc(=O)n(C2CCN(C3CC3)CC2)c(=O)[nH]1)C1CCCCC1` [Example 32]: the IC50 on bovine cardiac myosin stood at 3040 nM. In the case of `Cc1cccc([C@H](C)Nc2nc(=O)n([C@@H](C)C(F)(F)F)c(=O)[nH]2)c1` [Example 40], the IC50 on bovine cardiac myosin turned out to be 2210 nM. With `C[C@H](Nc1nc(=O)n(C2CCOCC2)c(=O)[nH]1)c1ccccc1` [Example 46], the IC50 on bovine cardiac myosin worked out at 3900 nM. `C[C@H](Nc1nc(=O)n(C2CCNCC2)c(=O)[nH]1)C1CCCCC1` [Example 235]: the IC50 on bovine cardiac myosin was 1660 nM.

For the molecule `C[C@H](Nc1nc(=O)n(C2CCOCC2)c(=O)[nH]1)c1cccc(F)c1F` [Example 170], the IC50 on bovine cardiac myosin was 1520 nM. Regarding `C[C@H](Nc1nc(=O)n(C2CCOCC2)c(=O)[nH]1)c1cccc(C(O)C(F)(F)F)c1` (stereo partly shown) [Example 348], the IC50 at bovine cardiac myosin worked out at 2450 nM. In the case of `C[C@H](Nc1nc(=O)n(C2CCOCC2)c(=O)[nH]1)c1cccc(-c2cc[nH]n2)c1` [Example 227], the IC50 at bovine cardiac myosin turned out to be 1670 nM.

Turning to `C[C@H](Nc1nc(=O)n(C2CCOCC2)c(=O)[nH]1)c1cc(F)cc(Cl)c1` [Example 172], on bovine cardiac myosin, the IC50 came out at 470 nM. Moreover, in series [1], the “Ratio of % FS 5 uM/15 uM” value stood at 2.2, the “% FS (% reduction from baseline) at 5 uM” value was 63.6 +/− 3.3% and the “% FS (% reduction from baseline) at 15uM” value is reported as 28.9 +/− 8.7%. Besides, in series [2], the DNAUC is 7631.0 ng·h/mL, the clearance was 2.5 mL/min/kg, the half-life was 237 min and the Vd amounted to 0.57 L/kg. With `C[C@H](Nc1nc(=O)n(C2CCOCC2)c(=O)[nH]1)c1cccc(-c2cnn(C)c2)c1` [Example 229], on bovine cardiac myosin, the IC50 is 820 nM. Consider `CC(Nc1nc(=O)n(C2CCOCC2)c(=O)[nH]1)c1ccc(CO)cc1` (stereo not shown) [Example 140], for which the IC50 at bovine cardiac myosin was 12300 nM. For the molecule `C[C@H](Nc1nc(=O)n(C2CCOCC2)c(=O)[nH]1)c1cccc(C(F)(F)F)c1` [Example 252], the IC50 at bovine cardiac myosin was 6890 nM. In series [2], the DNAUC came out at 3959.8 ng·h/mL, the clearance was 3.5 mL/min/kg, the half-life is 265 min and the Vd was determined as 0.94 L/kg. Consider `CC(C)n1c(=O)nc(N[C@@H](C)c2ccc(OC(F)(F)F)cc2)[nH]c1=O` [Example 177], for which the IC50 on bovine cardiac myosin was 1750 nM.

With `CC(C)N1CCC(n2c(=O)nc(N[C@@H](C)C3CCCCC3)[nH]c2=O)CC1` [Example 31], the IC50 at bovine cardiac myosin amounted to 5910 nM.

`Cc1cccc(C(C)Nc2nc(=O)n(C3CCN(C(=O)OC(C)(C)C)CC3)c(=O)[nH]2)c1` (stereo not shown) [Example 146]: the IC50 on bovine cardiac myosin is 5510 nM. With `O=c1nc(NC(CF)c2ccccc2)[nH]c(=O)n1C1CCCCC1` (stereo not shown) [Example 142], the IC50 on bovine cardiac myosin stood at 4830 nM.

Turning to `CC(C)n1c(=O)nc(N[C@@H](C)c2cccc([C@@H](C)O)c2)[nH]c1=O` [Example 271], the IC50 at bovine cardiac myosin was determined as 870 nM. Still for that read-out and setting: then `O=c1nc(NC(C2CCCCC2)C(F)(F)F)[nH]c(=O)n1C1CCOCC1` (stereo not shown) [Example 75], with 6120 nM; and `CC(C)n1c(=O)nc(N[C@@H](C)c2ccccc2)[nH]c1=O` [Example 3], with 7050 nM; and `CC(Nc1nc(=O)n(C2CCOCC2)c(=O)[nH]1)c1ccccc1O` (stereo not shown) [Example 101], with 10600 nM. For `Cc1ccc(F)c([C@H](C)Nc2nc(=O)n([C@@H]3CCOC[C@@H]3F)c(=O)[nH]2)c1` [Example 313], the IC50 at bovine cardiac myosin worked out at 1370 nM. Take `C[C@H](Nc1nc(=O)n([C@@H]2CCOC[C@@H]2F)c(=O)[nH]1)c1cccc(C(F)(F)F)c1` [Example 309]: the concentration for half-maximal inhibition (IC50) on bovine cardiac myosin is 1610 nM. Consider `CO[C@H]1CC[C@@H](n2c(=O)nc(N[C@@H](C)C3CCCCC3)[nH]c2=O)CC1` [Example 84], for which the half-maximal inhibitory concentration (IC50) at bovine cardiac myosin worked out at 5770 nM.
